Assay results reported in ChEMBL document CHEMBL3885881, “DrugMatrix”.

Organism: Rattus norvegicus
Assay: DrugMatrix - Regimen: Daily Repeat
Format: toxicity, organism-based, Sprague-Dawley
Design: regimen Daily Repeat, gender Male, age 6-8 weeks
Settings: in vivo, po, route oral GAVAGE, […]; for ABSOLUTE BASOPHIL / ABSOLUTE EOSINOPHIL / ABSOLUTE LYMPHOCYTE / ABSOLUTE MONOCYTE / ABSOLUTE SEGMENTED NEUTROPHIL / BASOPHIL / EOSINOPHIL / ERYTHROCYTE COUNT / HEMATOCRIT / HEMOGLOBIN / LEUKOCYTE COUNT / LYMPHOCYTE / MEAN CORPUSCULAR HEMOGLOBIN / MEAN CORPUSCULAR HEMOGLOBIN CONCENTRATION / MEAN CORPUSCULAR VOLUME / MONOCYTE / NEUTROPHIL / NUCLEATED RED BLOOD CELLS / PLATELET COUNT: tissue Blood; for ALANINE AMINOTRANSFERASE / ALBUMIN / ALKALINE PHOSPHATASE / ASPARTATE AMINOTRANSFERASE / BLOOD UREA NITROGEN / CARBON DIOXIDE / CHLORIDE / CHOLESTEROL / CREATINE PHOSPHOKINASE / CREATININE / GLUCOSE / LACTATE DEHYDROGENASE / LIPASE / PHOSPHORUS / POTASSIUM / SODIUM / TOTAL BILIRUBIN / TOTAL PROTEIN / URIC ACID: tissue Plasma
[1] = 0.6 mg/kg, 120 h, dose level Low, time 5 day
[2] = 4.5 mg/kg, 72 h, dose level High, time 3 day
[3] = 4.5 mg/kg, 120 h, dose level High, time 5 day

O=C(O)CCCc1ccc(N(CCCl)CCCl)cc1 [CHLORAMBUCIL]
ABSOLUTE BASOPHIL [1]: 0 CELLS/uL | ABSOLUTE EOSINOPHIL [1]: 245.67 CELLS/uL | ABSOLUTE LYMPHOCYTE [1]: 10916 CELLS/uL | ABSOLUTE MONOCYTE [1]: 468.33 CELLS/uL | ABSOLUTE SEGMENTED NEUTROPHIL [1]: 1403.33 CELLS/uL | BASOPHIL [1]: 0% | EOSINOPHIL [1]: 1.67% | ERYTHROCYTE COUNT [1]: 5.48 x10E6/uL | HEMATOCRIT [1]: 34.97% | HEMOGLOBIN [1]: 13.77 G/DL | LEUKOCYTE COUNT [1]: 13.03 x10E3/uL | LYMPHOCYTE [1]: 84.33% | MEAN CORPUSCULAR HEMOGLOBIN [1]: 25.13 pg | MEAN CORPUSCULAR HEMOGLOBIN CONCENTRATION [1]: 39.37 G/DL | MEAN CORPUSCULAR VOLUME [1]: 63.77 fL | MONOCYTE [1]: 3.67% | NEUTROPHIL [1]: 10.33% | NUCLEATED RED BLOOD CELLS [1]: 0 /100WBC | PLATELET COUNT [1]: 1176 x10E3/uL | ALANINE AMINOTRANSFERASE [1]: 57.33 u/L | ALBUMIN [1]: 4.03 G/DL | ALKALINE PHOSPHATASE [1]: 437.67 u/L | ASPARTATE AMINOTRANSFERASE [1]: 74.67 u/L | BLOOD UREA NITROGEN [1]: 12 mg/dL | CARBON DIOXIDE [1]: 24.33 mmol/L | CHLORIDE [1]: 100.67 MEQ/L | CHOLESTEROL [1]: 76.67 mg/dL | CREATINE PHOSPHOKINASE [1]: 301 u/L | CREATININE [1]: 0.16 mg/dL | GLUCOSE [1]: 184.33 mg/dL | LACTATE DEHYDROGENASE [1]: 187.33 u/L | LIPASE [1]: 7 u/L | PHOSPHORUS [1]: 10.63 mg/dL | POTASSIUM [1]: 6.13 MEQ/L | SODIUM [1]: 139.57 MEQ/L | TOTAL BILIRUBIN [1]: 0.13 mg/dL | TOTAL PROTEIN [1]: 5.83 G/DL | URIC ACID [1]: 1.33 mg/dL | ABSOLUTE BASOPHIL [2]: 0 CELLS/uL | ABSOLUTE EOSINOPHIL [2]: 76.67 CELLS/uL | ABSOLUTE LYMPHOCYTE [2]: 5496.33 CELLS/uL | ABSOLUTE MONOCYTE [2]: 177.33 CELLS/uL | ABSOLUTE SEGMENTED NEUTROPHIL [2]: 816.33 CELLS/uL | BASOPHIL [2]: 0% | EOSINOPHIL [2]: 1.33% | ERYTHROCYTE COUNT [2]: 5.43 x10E6/uL | HEMATOCRIT [2]: 34.5% | HEMOGLOBIN [2]: 13.73 G/DL | LEUKOCYTE COUNT [2]: 6.57 x10E3/uL | LYMPHOCYTE [2]: 84.33% | MEAN CORPUSCULAR HEMOGLOBIN [2]: 25.33 pg | MEAN CORPUSCULAR HEMOGLOBIN CONCENTRATION [2]: 39.77 G/DL | MEAN CORPUSCULAR VOLUME [2]: 63.67 fL | MONOCYTE [2]: 2.67% | NEUTROPHIL [2]: 11.67% | NUCLEATED RED BLOOD CELLS [2]: 0 /100WBC | PLATELET COUNT [2]: 1208.33 x10E3/uL | ALANINE AMINOTRANSFERASE [2]: 50 u/L | ALBUMIN [2]: 4.1 G/DL | ALKALINE PHOSPHATASE [2]: 336 u/L | ASPARTATE AMINOTRANSFERASE [2]: 69 u/L | BLOOD UREA NITROGEN [2]: 13 mg/dL | CARBON DIOXIDE [2]: 25.33 mmol/L | CHLORIDE [2]: 100.33 MEQ/L | CHOLESTEROL [2]: 70.67 mg/dL | CREATINE PHOSPHOKINASE [2]: 260.33 u/L | CREATININE [2]: 0.34 mg/dL | GLUCOSE [2]: 191.33 mg/dL | LACTATE DEHYDROGENASE [2]: 111 u/L | LIPASE [2]: 9 u/L | PHOSPHORUS [2]: 12.53 mg/dL | POTASSIUM [2]: 6.51 MEQ/L | SODIUM [2]: 140.03 MEQ/L | TOTAL BILIRUBIN [2]: 0.1 mg/dL | TOTAL PROTEIN [2]: 5.57 G/DL | URIC ACID [2]: 2.1 mg/dL | ABSOLUTE BASOPHIL [3]: 0 CELLS/uL | ABSOLUTE EOSINOPHIL [3]: 0 CELLS/uL | ABSOLUTE LYMPHOCYTE [3]: 1406 CELLS/uL | ABSOLUTE MONOCYTE [3]: 62.67 CELLS/uL | ABSOLUTE SEGMENTED NEUTROPHIL [3]: 98 CELLS/uL | BASOPHIL [3]: 0% | EOSINOPHIL [3]: 0% | ERYTHROCYTE COUNT [3]: 5.5 x10E6/uL | HEMATOCRIT [3]: 34.17% | HEMOGLOBIN [3]: 13.53 G/DL | LEUKOCYTE COUNT [3]: 1.57 x10E3/uL | LYMPHOCYTE [3]: 90% | MEAN CORPUSCULAR HEMOGLOBIN [3]: 24.63 pg | MEAN CORPUSCULAR HEMOGLOBIN CONCENTRATION [3]: 39.63 G/DL | MEAN CORPUSCULAR VOLUME [3]: 62.13 fL | MONOCYTE [3]: 4% | NEUTROPHIL [3]: 6% | NUCLEATED RED BLOOD CELLS [3]: 0 /100WBC | PLATELET COUNT [3]: 1169.33 x10E3/uL | ALANINE AMINOTRANSFERASE [3]: 45 u/L | ALBUMIN [3]: 3.97 G/DL | ALKALINE PHOSPHATASE [3]: 263.67 u/L | ASPARTATE AMINOTRANSFERASE [3]: 75.33 u/L | BLOOD UREA NITROGEN [3]: 13 mg/dL | CARBON DIOXIDE [3]: 24.33 mmol/L | CHLORIDE [3]: 101 MEQ/L | CHOLESTEROL [3]: 70.67 mg/dL | CREATINE PHOSPHOKINASE [3]: 644 u/L | CREATININE [3]: 0.13 mg/dL | GLUCOSE [3]: 157 mg/dL | LACTATE DEHYDROGENASE [3]: 154 u/L | LIPASE [3]: 7.33 u/L | PHOSPHORUS [3]: 9.53 mg/dL | POTASSIUM [3]: 6.16 MEQ/L | SODIUM [3]: 140.2 MEQ/L | TOTAL BILIRUBIN [3]: 0.2 mg/dL | TOTAL PROTEIN [3]: 5.73 G/DL | URIC ACID [3]: 1.3 mg/dL
